Experimental findings from article PMC12843137, “Fine-Tuning Side Chain Substitutions: Impacts on the Lipophilicity–Solubility–Permeability Interplay in Macrocyclic Peptides” (Marine Drugs, 2025) are described below.

Converted amounts (≈) assume the structure as drawn. Where two headings read alike, the source gives them in different places. Marks after values point to notes of the source that are not given here.

Data set [1] in a line: Kinetic solubility in PBS pH 7.4. Format: physicochemical. The settings on record: PBS pH 7.4, 25 °C; for solubility at 2 h: sodium phosphate buffer (PBS), 25 °C, pH 7.4, aqueous buffer, kinetic from dmso stock. The protocol: One explanation for the high IC50 values (i.e., low activity) of the new compounds is their potential poor solubility in aqueous solution or inadequate lipophilicity. To investigate this hypothesis, we determined kinetic solubility in […] phosphate buffer at pH 7.4 (Table 1). […] The remaining two compounds, BE and 29, show low solubilities (<0.1 μM). […] Additionally, since approximately 95% of drugs are ionizable, assessment of lipophilicity at pH 7.4 (log D7.4) is essential during the initial phases of drug discovery. In this study, we employ the shake-flask method to evaluate this property. […] Because lipophilicity directly reflects compound–membrane interaction, the activity of these compounds against PANC-1 cells likely stems from their interaction with the cell membrane.
Solubility is determined in 100 mM sodium phosphate buffer (PBS), pH 7.4. The stock solutions of test compound and control compound progesterone are prepared in DMSO at a concentration of 10 mM. 30 µL of working solutions of each sample is placed in order into their proper 96-well rack. 970 µL of PBS pH 7.4 is added into each vial of the cap-less Solubility Sample plate. The assay is performed in duplicate. Add one stir stick to each vial and seal using a molded PTFE/Silicone plug. Then the Solubility Sample plate is transferred to the Eppendorf Thermomixer Comfort plate shaker and shaken at 25 °C at 1100 RPM for 2 h. After completion of the 2 h, plugs are removed and the stir sticks are removed using a big magnet, the samples from the Solubility Sample plate are transferred into the filter plate. Using the Vacuum Manifold, all the samples are filtered. Aliquot of 5 µL is taken from the filtrate, followed by addition of 5 µL DMSO and 490 µL of a mixture of H2O and acetonitrile (1:1 in v/v). 200 μL of diluent is transferred to a new 96-well plate for LC-MS/MS analysis (see SI Bioanalytical Method for Solubility Measurement). The dilution factor is changed according to the solubility values and the LC-MS signal response.
MRM) / -4500 v (negative MRM). […]
13. Bioanalytical Method for Solubility Measurement
MS analysis: Triple Quad TM 5500 instrument from AB Inc (Canada) with an ESI interface
Injection volume: 1 μL, 3 μL, 5 μL or 10 μL
Column: ACQUITY UPLC BEH C18 (2.1 × 50 mmI.D. S-1.7 μm, 12 nm) Column
Mobile phase: 0.1% Ammonium hydroxide solution in water (A) and 0.1% Ammonium hydroxide solution
Column: XSelect Hss T3 2.5μm (2.1 × 50 mm) Column XP
Mobile phase: 0.1% formic acid in water (A) and 0.1% formic acid in acetonitrile (B)

Data set [2] is described as follows: Caco-2 cell permeability study. Format: in vitro ADME. The following applies: human; for efflux ratio at 2 h, 5 µM: Caco-2, pH 7.4; for recovery at 2 h, 5 μM: Caco-2, pH 7.4, Caco-2, 5 μM; for Papp A→B at 2 h, 5 µM / Papp B→A at 2 h, 5 µM: pH 7.4, Caco-2, 5 μM; for Papp A→B at 2 h, 5 µM: apical to basolateral; for Papp B→A at 2 h, 5 µM: basolateral to apical. From the text:
One of the physicochemical quantities that mirrors the interaction of a compound with the cell membrane is permeability. Traditionally, measuring permeability with the PAMPA model provides estimates of passive permeability across a model membrane. […] Therefore, we measure the cell permeability of the six compounds using Caco-2 cells, so that the apical to basolateral (A to B) and basolateral to apical (B to A) permeabilities, and thereby the efflux ratio, can be determined. Three commercial drugs (Table 2) are used as standard compounds to establish and validate our in-house assay.
For Caco-2 cells (originally obtained from the American Type Culture Collection; ATCC, Manassas, VA, USA), 50 μL and […] of cell culture medium are added to each well of the Transwell insert and reservoir, respectively. And then the HTS transwell plates are incubated at 37 °C, 5% CO2 for 1 h before cell seeding. Caco-2 cells are diluted to 6.86 × 10^5 cells/mL with culture medium and 50 μL of cell suspension is dispensed into the filter well of the 96-well HTS Transwell plate. Cells are cultivated for 14–18 days in a cell culture incubator at 37 °C, 5% CO2, 95% relative humidity. Cell culture medium is replaced every other day, beginning no later than 24 h after initial plating. Stock solutions of the test compounds are prepared at a concentration of 10 mM in DMSO. […] Detailed assay procedures are provided in the SI. […]
dilution factor is changed according to the log D value and the LC-MS signal response. The samples are evaluated by LC-MS/MS analysis. All experiments are performed in duplicates.
5. Caco-2 Cell Permeability Assay
The Caco-2 plate is removed from the incubator and washed twice with pre-warmed HBSS (10 mM HEPES, pH 7.4), and then incubated at 37 °C for 30 minutes. The stock solutions of control compounds and test compounds are diluted in DMSO to get 1 mM solutions and then diluted with HBSS (10 mM HEPES, pH 7.4) get 5 μM working solutions. The final concentration of DMSO in the incubation system is 0.5%. To determine the rate of drug transport in the apical to basolateral direction. 125 μL of 5 μM working solution of control compounds and test compounds are added to the Transwell insert (apical compartment), and transfer 50 μL sample (D0 sample) immediately from the apical compartment to a new 96-well plate. Fill the wells in the receiver plate (basolateral compartment) with 235 μL of HBSS (10 mM HEPES, pH 7.4). To determine the rate of drug transport in the basolateral to apical direction. 285 μL of 5 μM working solution of control compounds and test compounds are to the receiver plate wells (basolateral compartment), and transfer 50 μL sample (D0 sample) immediately from the basolateral compartment to a new 96-well plate.
Fill the wells in the Transwell insert (apical compartment) with 75 μL of HBSS (10 mM HEPES, pH 7.4).
The assay is performed in duplicate. The plates are incubated at 37 °C for 2 h. At the end of the incubation, 50 μL samples from donor sides (apical compartment for Ap→Bl flux, and basolateral compartment for Bl→Ap) and receiver sides (basolateral compartment for Ap→Bl flux, and apical compartment for Bl→Ap) are transferred to wells of a new 96-well plate, followed by the addition of 4 volume of cold acetonitrile containing appropriate internal standards (IS). Samples are Vortexed for 5 minutes and then centrifuged at 3,220 g for 30 minutes. An aliquot of 100 µL of the supernatant is mixed with an appropriate volume of ultra-pure water before LC-MS/MS analysis (see SI Bioanalytical Method for Caco-2 Cell Permeability […]
Papp (A to B) is greater than the Papp (A to B) of minoxidil it is assigned as high permeability. If the Papp (A to B) is […]
In general terms: Caco-2 cells form a polarised layer with tight junctions and transporters.

[3] abbreviates: read-out: Mean % Solution Recovery A to B.
The mark [4] stands for this setting: read-out: Mean % Solution Recovery B to A.

A word on the solubility: it is how much of the substance goes into solution per volume. Broadly, the efflux ratio is a quotient of directional permeabilities that is used to spot active efflux. What is called Papp A→B is how fast a substance crosses the layer from the apical side. Read a high Papp A→B as ready permeation. For orientation: Papp B→A means the apparent permeability from the basolateral to the apical side of a cell layer. Take `CCCCCCCCCCCCCC1OC(=O)CN(C)C(=O)C=CC(CN2CCN(C)CC2)NC(=O)CNC(=O)C(C)(O)C(=O)C1C` (stereo not drawn) [BE-NMP]: in data set [1], the solubility at 2 h amounted to 210 µM (≈ 139 µg/mL). In addition, in data set [2], the efflux ratio at 2 h, 5 µM was > 65.3; the apical-to-basolateral permeability (Papp A→B) at 2 h, 5 µM is < 0.0144 ×10⁻⁶ cm/s; the Papp B→A at 2 h, 5 µM was 0.942 ×10⁻⁶ cm/s. Also, in data set [2] (setting [3]), the recovery at 2 h, 5 μM was < 23.5%. Further, the recovery at 2 h, 5 μM in data set [2] (setting [4]) is 8.99%.
With `CCCCOc1ccc(-c2ccc(-c3ccc(Cn4cc(CCCCC[C@H]5OC(=O)CN(C)C(=O)/C=C/[C@@H](CN6CCN(C)CC6)NC(=O)CNC(=O)[C@@](C)(O)C(=O)[C@H]5C)nn4)cc3)cc2)cc1` [Compound 29], in data set [1] (2 h), the Solubility is given as <0.063 * µM. The solubility at 2 h in data set [1] was < 0.1 µM. The recovery at 2 h, 5 μM in data set [2] (setting [3]) was < 92.9%. The recovery at 2 h, 5 μM in data set [2] (setting [4]) is < 71.1%. Moreover, in data set [2], the Papp A→B at 2 h, 5 µM was < 0.00798 ×10⁻⁶ cm/s and the Papp B→A at 2 h, 5 µM was < 0.00266 ×10⁻⁶ cm/s.
`CC1C(=O)C(C)(O)C(=O)NCC(=O)NC(CN2CCN(C)CC2)C=CC(=O)N(C)CC(=O)OC1CCCCc1cn(CCCCCCCCNC(=N)N)nn1` (stereo not drawn) [Compound 31] had a solubility at 2 h in data set [1] of 268 µM (≈ 207 µg/mL). Besides, in data set [2], the efflux ratio at 2 h, 5 µM is 2.57; the Papp A→B at 2 h, 5 µM came out at 0.0348 ×10⁻⁶ cm/s; the Papp B→A at 2 h, 5 µM came out at 0.0894 ×10⁻⁶ cm/s. Further, in data set [2] (setting [3]), the recovery at 2 h, 5 μM amounted to 109%. For the same compound, the recovery at 2 h, 5 μM in data set [2] (setting [4]) is 70.4%.
For `C[C@@H]1C(=O)[C@](C)(O)C(=O)NCC(=O)N[C@H](CN2CCN(C)CC2)/C=C/C(=O)N(C)CC(=O)O[C@H]1CCCCCc1cn(CCCCCCCNc2cccc3c2CN(C2CCC(=O)NC2=O)C3=O)nn1` (stereo partly drawn) [Compound 40], the solubility at 2 h in data set [1] came out at 259 µM (≈ 252 µg/mL). In addition, in data set [2], the efflux ratio at 2 h, 5 µM was > 10.8; the Papp A→B at 2 h, 5 µM is < 0.0116 ×10⁻⁶ cm/s; the Papp B→A at 2 h, 5 µM came out at 0.13 ×10⁻⁶ cm/s. The recovery at 2 h, 5 μM in data set [2] (setting [3]) is < 89.4%. In addition, the recovery at 2 h, 5 μM in data set [2] (setting [4]) worked out at 50.4%.
